In this test the test system is MV-4-11 cells. Nature of the test: Gene expression microarray analysis (Affymetrix PrimeView) and GSEA. Format: cell-based, human. Set-up: RFU PODN (11730768_x_at) / Fold change /veh PODN (11730768_x_at) / RFU LINC00158 (11744669_a_at) / Fold change /veh LINC00158 (11744669_a_at) / RFU DUSP10 (11751237_a_at) / Fold change /veh DUSP10 (11751237_a_at) / RFU ID3 (11757404_x_at) / Fold change /veh ID3 (11757404_x_at) / RFU PLEKHG5 (11737974_s_at) / Fold change /veh PLEKHG5 (11737974_s_at) / RFU LRRC4B (11730491_at) / Fold change /veh LRRC4B (11730491_at) / RFU GIMAP4 (11747438_a_at) / Fold change /veh GIMAP4 (11747438_a_at) / RFU KRT8 (11758183_x_at) / Fold change /veh KRT8 (11758183_x_at) / RFU CNN1 (11734310_a_at) / Fold change /veh CNN1 (11734310_a_at) / RFU VPS37D (11726825_at) / Fold change /veh VPS37D (11726825_at) / RFU C10orf10 (11716522_x_at) / Fold change /veh C10orf10 (11716522_x_at) / RFU KIR2DL2 /// KIR2DL4 /// KIR2DL5A /// KIR2DL5B /// KIR2DS1 /// KIR2DS2 /// KIR2DS3 /// KIR2DS4 /// KIR3DL3 /// KIR3DL3 /// KIR3DS1 (11738374_at) / Fold change /veh KIR2DL2 /// KIR2DL4 /// KIR2DL5A /// KIR2DL5B /// KIR2DS1 /// KIR2DS2 /// KIR2DS3 /// KIR2DS4 /// KIR3DL3 /// KIR3DL3 /// KIR3DS1 (11738374_at) / RFU C1QL1 (11718748_at) / Fold change /veh C1QL1 (11718748_at) / RFU TMPRSS4 (11747572_a_at) / Fold change /veh TMPRSS4 (11747572_a_at) / RFU HAMP (11756126_x_at) / Fold change /veh HAMP (11756126_x_at) / RFU RNFT2 (11725882_a_at) / Fold change /veh RNFT2 (11725882_a_at) / RFU NR4A2 (11747474_a_at) / Fold change /veh NR4A2 (11747474_a_at) / RFU ABCC12 (11746883_a_at) / Fold change /veh ABCC12 (11746883_a_at) / RFU TMEM136 (11760407_x_at) / Fold change /veh TMEM136 (11760407_x_at) / RFU CLDN22 /// WWC2 (11732394_at) / Fold change /veh CLDN22 /// WWC2 (11732394_at) / RFU HLA-DPB1 (11760878_x_at) / Fold change /veh HLA-DPB1 (11760878_x_at) / RFU SPINT1 (11716480_a_at) / Fold change /veh SPINT1 (11716480_a_at) / RFU GAP43 (11754022_s_at) / Fold change /veh GAP43 (11754022_s_at) / RFU A4GNT (11735810_at) / Fold change /veh A4GNT (11735810_at) / RFU PRB3 (11715151_x_at) / Fold change /veh PRB3 (11715151_x_at) / RFU TUBB4B (11761932_at) / Fold change /veh TUBB4B (11761932_at) / RFU CAPN14 (11732068_a_at) / Fold change /veh CAPN14 (11732068_a_at) / RFU TMCC2 (11721928_a_at) / Fold change /veh TMCC2 (11721928_a_at) / RFU IRGQ (11745062_a_at) / Fold change /veh IRGQ (11745062_a_at) / RFU FAM174B (11720279_a_at) / Fold change /veh FAM174B (11720279_a_at) / RFU TMPRSS4 (11748680_a_at) / Fold change /veh TMPRSS4 (11748680_a_at) / RFU FAM212B (11763350_a_at) / Fold change /veh FAM212B (11763350_a_at) / RFU PLEKHG5 (11743358_a_at) / Fold change /veh PLEKHG5 (11743358_a_at) / RFU ZSCAN30 (11745921_a_at) / Fold change /veh ZSCAN30 (11745921_a_at) / RFU CMKLR1 (11741424_a_at) / Fold change /veh CMKLR1 (11741424_a_at) / RFU LOC101060620 /// MAPK8IP1 (11723275_at) / Fold change /veh LOC101060620 /// MAPK8IP1 (11723275_at) / RFU SPTSSB (11747773_x_at) / Fold change /veh SPTSSB (11747773_x_at) / RFU PRSS12 (11739890_at) / Fold change /veh PRSS12 (11739890_at) / RFU BIN1 (11741810_x_at) / Fold change /veh BIN1 (11741810_x_at) / RFU WNT11 (11732464_a_at) / Fold change /veh WNT11 (11732464_a_at) / RFU C10orf10 (11716521_a_at) / Fold change /veh C10orf10 (11716521_a_at) / RFU C5orf56 (11738089_at) / Fold change /veh C5orf56 (11738089_at) / RFU CYB561 (11721691_x_at) / Fold change /veh CYB561 (11721691_x_at) / RFU ANKRD19P (11752326_a_at) / Fold change /veh ANKRD19P (11752326_a_at) / RFU OR2T12 /// OR2T33 /// OR2T8 (11738714_s_at) / Fold change /veh OR2T12 /// OR2T33 /// OR2T8 (11738714_s_at) / RFU VCAN (11748164_a_at) / Fold change /veh VCAN (11748164_a_at) / RFU JSRP1 (11732532_at) / Fold change /veh JSRP1 (11732532_at) / RFU KRTAP10-11 (11738290_x_at) / Fold change /veh KRTAP10-11 (11738290_x_at) / RFU MYO3A (11730013_a_at) / Fold change /veh MYO3A (11730013_a_at) / RFU EBF3 (11725865_a_at) / Fold change /veh EBF3 (11725865_a_at) / RFU CAMK2N1 (11719241_x_at) / Fold change /veh CAMK2N1 (11719241_x_at) / RFU C5orf56 (11738088_a_at) / Fold change /veh C5orf56 (11738088_a_at) / RFU OLFML3 (11715873_a_at) / Fold change /veh OLFML3 (11715873_a_at) / RFU LOC100653217 /// NTM (11731650_a_at) / Fold change /veh LOC100653217 /// NTM (11731650_a_at) / RFU MAPK11 (11762145_a_at) / Fold change /veh MAPK11 (11762145_a_at) / RFU FIZ1 (11724087_x_at) / Fold change /veh FIZ1 (11724087_x_at) / RFU OASL (11726364_x_at) / Fold change /veh OASL (11726364_x_at) / RFU SOX15 (11748057_x_at) / Fold change /veh SOX15 (11748057_x_at) / RFU CD79A (11719716_a_at) / Fold change /veh CD79A (11719716_a_at) / RFU HIST1H1D (11736915_at) / Fold change /veh HIST1H1D (11736915_at) / RFU CASKIN2 (11723855_a_at) / Fold change /veh CASKIN2 (11723855_a_at) / RFU LOC730098 (11760151_x_at) / Fold change /veh LOC730098 (11760151_x_at) / RFU OR4N2 (11742367_at) / Fold change /veh OR4N2 (11742367_at) / RFU PRRT2 (11749266_a_at) / Fold change /veh PRRT2 (11749266_a_at) / RFU SNX32 (11753110_a_at) / Fold change /veh SNX32 (11753110_a_at) / RFU CDHR5 (11726645_a_at) / Fold change /veh CDHR5 (11726645_a_at) / RFU RCAN1 (11760418_a_at) / Fold change /veh RCAN1 (11760418_a_at) / RFU FAM167A (11723789_a_at) / Fold change /veh FAM167A (11723789_a_at) / RFU FAM26E (11764081_at) / Fold change /veh FAM26E (11764081_at) / RFU ISYNA1 (11749810_s_at) / Fold change /veh ISYNA1 (11749810_s_at) / RFU ACY1 (11761880_at) / Fold change /veh ACY1 (11761880_at) / RFU 11764098_at / Fold change /veh 11764098_at / RFU SAMD14 (11745864_x_at) / Fold change /veh SAMD14 (11745864_x_at) / RFU NPB (11741838_a_at) / Fold change /veh NPB (11741838_a_at) / RFU TMPRSS6 (11731388_a_at) / Fold change /veh TMPRSS6 (11731388_a_at) / RFU KRTAP10-2 (11738614_at) / Fold change /veh KRTAP10-2 (11738614_at) / RFU ARHGAP8 /// PRR5-ARHGAP8 (11727945_x_at) / Fold change /veh ARHGAP8 /// PRR5-ARHGAP8 (11727945_x_at) / RFU KRTAP5-7 /// NADSYN1 (11734609_at) / Fold change /veh KRTAP5-7 /// NADSYN1 (11734609_at) / RFU RASL12 (11751679_a_at) / Fold change /veh RASL12 (11751679_a_at) / RFU CDKN2B (11736163_a_at) / Fold change /veh CDKN2B (11736163_a_at) / RFU PRF1 (11729649_at) / Fold change /veh PRF1 (11729649_at) / RFU, ZNF638 /// ZNF638-IT1 / Fold change vs veh, ZNF638 /// ZNF638-IT1 / RFU, PANK3 / Fold change vs veh, PANK3 / RFU, SH3YL1 / Fold change vs veh, SH3YL1 / RFU, ZEB2 / Fold change vs veh, ZEB2 / RFU, NRIP1 / Fold change vs veh, NRIP1 / RFU, PTTG1IP / Fold change vs veh, PTTG1IP / RFU, CAPN2 / Fold change vs veh, CAPN2 / RFU, MED14 / Fold change vs veh, MED14 / RFU, SNORA58 / Fold change vs veh, SNORA58 / RFU, C1orf63 / Fold change vs veh, C1orf63 / RFU, LRRFIP1 / Fold change vs veh, LRRFIP1 / RFU, NDUFAF7 / Fold change vs veh, NDUFAF7 / RFU, SLC12A2 / Fold change vs veh, SLC12A2 / RFU, IBTK / Fold change vs veh, IBTK / RFU, ESF1 / Fold change vs veh, ESF1 / Fold change vs veh, TMEM50B / RFU, TAOK1 / Fold change vs veh, TAOK1 / RFU, ACBD3 / Fold change vs veh, ACBD3 / RFU, TMA16 / Fold change vs veh, TMA16 / RFU, RWDD3 / Fold change vs veh, RWDD3 / RFU, BCAT1 / Fold change vs veh, BCAT1 / RFU, EDEM3 / Fold change vs veh, EDEM3 / RFU, TMEM33 / Fold change vs veh, TMEM33 / RFU, WDR75 / Fold change vs veh, WDR75 / RFU, AHCTF1 / Fold change vs veh, AHCTF1 / RFU, TFRC / Fold change vs veh, TFRC / RFU, ZDHHC17 / Fold change vs veh, ZDHHC17 / RFU, NOM1 / Fold change vs veh, NOM1 / RFU, ARL8B / Fold change vs veh, ARL8B / RFU, ZBTB11 / Fold change vs veh, ZBTB11 / RFU, TAMM41 / Fold change vs veh, TAMM41 / RFU, KIAA1704 /// LOC100996395 / Fold change vs veh, KIAA1704 /// LOC100996395 / RFU, ING1 / Fold change vs veh, ING1 / RFU, TRMT61B / Fold change vs veh, TRMT61B / RFU, FUBP3 / Fold change vs veh, FUBP3 / RFU, TP53 / Fold change vs veh, TP53 / RFU, TNKS2 / Fold change vs veh, TNKS2 / RFU, ZFP14 / Fold change vs veh, ZFP14 / RFU, ACTR2 / Fold change vs veh, ACTR2 / RFU, PPP3R1 / Fold change vs veh, PPP3R1 / RFU, PIK3R1 / Fold change vs veh, PIK3R1 / RFU, HNRNPA1 / Fold change vs veh, HNRNPA1 / RFU, RNF170 / Fold change vs veh, RNF170 / RFU, ZNF28 / Fold change vs veh, ZNF28 / RFU, RNGTT / Fold change vs veh, RNGTT / RFU, OGT / Fold change vs veh, OGT / RFU, BRD1 / Fold change vs veh, BRD1 / RFU, MARS / Fold change vs veh, MARS / RFU, ZNF655 / Fold change vs veh, ZNF655 / RFU, FAHD1 / Fold change vs veh, FAHD1 / RFU, BDP1 / Fold change vs veh, BDP1 / RFU, LRRCC1 / Fold change vs veh, LRRCC1 / RFU, ARID1A / Fold change vs veh, ARID1A / RFU, ZNF146 / Fold change vs veh, ZNF146 / RFU, ZNF330 / Fold change vs veh, ZNF330 / RFU, GPN3 / Fold change vs veh, GPN3 / RFU, C9orf123 / Fold change vs veh, C9orf123 / RFU, N4BP2L2 / Fold change vs veh, N4BP2L2 / RFU, ARFIP1 / Fold change vs veh, ARFIP1 / RFU, FAM179B / Fold change vs veh, FAM179B / RFU, BCL10 / Fold change vs veh, BCL10 / RFU, UHRF1BP1L / Fold change vs veh, UHRF1BP1L / RFU, BET1 / Fold change vs veh, BET1 / RFU, CNOT2 / Fold change vs veh, CNOT2 / RFU, ZNF268 / Fold change vs veh, ZNF268 / Fold change vs veh, ZNF507 / RFU, DGCR2 / Fold change vs veh, DGCR2 / RFU, WDSUB1 / Fold change vs veh, WDSUB1 / Fold change vs veh, HSP90B1 /// MIR3652 / RFU, ADSS / Fold change vs veh, ADSS / RFU, GK / Fold change vs veh, GK / RFU, ZNF148 / Fold change vs veh, ZNF148 / RFU, TAF9 / Fold change vs veh, TAF9 / RFU, SLC1A5 / Fold change vs veh, SLC1A5 / RFU, SLMO2 / Fold change vs veh, SLMO2 / RFU, ABCC4 / Fold change vs veh, ABCC4 / RFU, LOC101060439 /// RAP1B / Fold change vs veh, LOC101060439 /// RAP1B / RFU, RFX7 / Fold change vs veh, RFX7 / RFU, GTPBP10 / Fold change vs veh, GTPBP10 / RFU, CNEP1R1 / Fold change vs veh, CNEP1R1 / RFU, BIVM-ERCC5 /// ERCC5 / Fold change vs veh, BIVM-ERCC5 /// ERCC5 / RFU, ILF3 / Fold change vs veh, ILF3 / RFU 11762660_at / Fold change /veh 11762660_at / RFU VCAN (11757783_s_at) / Fold change /veh VCAN (11757783_s_at) / RFU DDX43 (11728927_at) / Fold change /veh DDX43 (11728927_at) / RFU KRT8 (11758188_x_at) / Fold change /veh KRT8 (11758188_x_at) / RFU NKD1 (11759106_at) / Fold change /veh NKD1 (11759106_at) / RFU SRD5A1 (11742802_a_at) / Fold change /veh SRD5A1 (11742802_a_at) / RFU TPSAB1 /// TPSB2 (11721975_s_at) / Fold change /veh TPSAB1 /// TPSB2 (11721975_s_at) / RFU GSTM3 (11746129_a_at) / Fold change /veh GSTM3 (11746129_a_at) / RFU IL23R (11737362_x_at) / Fold change /veh IL23R (11737362_x_at) / RFU TMEM51 (11727254_a_at) / Fold change /veh TMEM51 (11727254_a_at) / RFU PIWIL2 (11732686_x_at) / Fold change /veh PIWIL2 (11732686_x_at) / RFU ORM1 (11744905_x_at) / Fold change /veh ORM1 (11744905_x_at) / RFU CCDC152 (11743942_at) / Fold change /veh CCDC152 (11743942_at) / RFU ECM1 (11717891_a_at) / Fold change /veh ECM1 (11717891_a_at) / RFU IL23R (11748794_a_at) / Fold change /veh IL23R (11748794_a_at) / RFU TNFAIP8L3 (11732012_x_at) / Fold change /veh TNFAIP8L3 (11732012_x_at) / RFU MBOAT4 (11741988_at) / Fold change /veh MBOAT4 (11741988_at) / RFU 11764193_at / Fold change /veh 11764193_at / RFU TMEM53 (11763286_at) / Fold change /veh TMEM53 (11763286_at) / RFU MAGEB2 (11727129_at) / Fold change /veh MAGEB2 (11727129_at) / RFU TMEM200A (11744735_a_at) / Fold change /veh TMEM200A (11744735_a_at) / RFU CCDC152 (11751479_a_at) / Fold change /veh CCDC152 (11751479_a_at) / RFU FAM211A (11726209_a_at) / Fold change /veh FAM211A (11726209_a_at) / RFU RGS16 (11746705_a_at) / Fold change /veh RGS16 (11746705_a_at) / RFU VCAN (11755009_s_at) / Fold change /veh VCAN (11755009_s_at) / RFU RHOB (11743442_s_at) / Fold change /veh RHOB (11743442_s_at) / RFU RGS16 (11720943_a_at) / Fold change /veh RGS16 (11720943_a_at) / RFU RGS16 (11720944_at) / Fold change /veh RGS16 (11720944_at) / RFU, VPS4B / Fold change vs veh, VPS4B / RFU, CREB1 / Fold change vs veh, CREB1 / RFU, DNAJC13 / Fold change vs veh, DNAJC13 / RFU, GNAQ / Fold change vs veh, GNAQ / RFU, CDK5R1 / Fold change vs veh, CDK5R1 / RFU, ZRANB3 / Fold change vs veh, ZRANB3 / RFU, CUL4A / Fold change vs veh, CUL4A / RFU, CCNY / Fold change vs veh, CCNY / RFU, UFL1 / Fold change vs veh, UFL1 / RFU, COG3 / Fold change vs veh, COG3 / RFU, DIAPH2 / Fold change vs veh, DIAPH2 / RFU, SKA2 / Fold change vs veh, SKA2 / RFU, AFF3 / Fold change vs veh, AFF3 / RFU, LMF1 / Fold change vs veh, LMF1 / RFU, IPO11 / Fold change vs veh, IPO11 / RFU, DFFB / Fold change vs veh, DFFB / RFU, FOXP1 / Fold change vs veh, FOXP1 / RFU, CARD8 / Fold change vs veh, CARD8 / RFU, STRN3 / Fold change vs veh, STRN3 / RFU, ADK / Fold change vs veh, ADK / RFU, RASSF2 / Fold change vs veh, RASSF2 / RFU, WIPF1 / Fold change vs veh, WIPF1 / RFU, LARP1B / Fold change vs veh, LARP1B / RFU, RASA1 / Fold change vs veh, RASA1 / RFU, RB1 / Fold change vs veh, RB1 / RFU, PPFIA1 / Fold change vs veh, PPFIA1 / RFU, MAT2A / Fold change vs veh, MAT2A / RFU, CCT5 / Fold change vs veh, CCT5 / RFU, WDR92 / Fold change vs veh, WDR92 / RFU, CUX1 / Fold change vs veh, CUX1 / RFU, TTC7A / Fold change vs veh, TTC7A / RFU, TMEM135 / Fold change vs veh, TMEM135 / RFU, DEPTOR / Fold change vs veh, DEPTOR / RFU, CPM / Fold change vs veh, CPM / RFU, DNAJB6 / Fold change vs veh, DNAJB6 / RFU, CACNA2D3 / Fold change vs veh, CACNA2D3 / RFU, DTX4 / Fold change vs veh, DTX4 / RFU, TFCP2 / Fold change vs veh, TFCP2 / RFU, GMCL1 /// GMCL1P1 / Fold change vs veh, GMCL1 /// GMCL1P1 / RFU, AEBP2 / Fold change vs veh, AEBP2 / RFU, SNHG1 /// SNORD22 /// SNORD25 /// SNORD26 /// SNORD27 /// SNORD28 /// SNORD29 /// SNORD31 / Fold change vs veh, SNHG1 /// SNORD22 /// SNORD25 /// SNORD26 /// SNORD27 /// SNORD28 /// SNORD29 /// SNORD31 / Fold change (Aza/veh), C12orf56 (ProbeSet 11735607_a_at) / Fold change (ACY-1035/veh), C12orf56 (ProbeSet 11735607_a_at) / Fold change (Aza/veh), FGFR1OP (ProbeSet 11751329_s_at) / Fold change (ACY-1035/veh), FGFR1OP (ProbeSet 11751329_s_at) / Fold change (Aza/veh), VPS36 (ProbeSet 11739960_a_at) / Fold change (ACY-1035/veh), VPS36 (ProbeSet 11739960_a_at) / RFU SYPL1 (11715823_x_at) / Fold change /veh SYPL1 (11715823_x_at) / RFU IGFBP7 (11715501_s_at) / Fold change /veh IGFBP7 (11715501_s_at) / RFU REEP3 (11722064_at) / Fold change /veh REEP3 (11722064_at) / RFU IGLL1 (11728026_x_at) / Fold change /veh IGLL1 (11728026_x_at): dose or concentration left out as unconfirmed. As to conditions: ProbeSet 11719185_x_at; LIST B.

These results are taken from PMC5218480 (PLoS ONE, 2017).

Take `Nc1ccc(-c2cccs2)cc1NC(=O)c1ccc2c(c1)cc(C1CC1)n2CCN1CCOCC1` [ACY-1035]: the “RFU, N4BP2L2” value stood at 104.68 RFU.
